Experimental data from US20250287987A1, “AEROSOLISABLE MATERIAL” (NICOVENTURES TRADING LIMITED, priority 2022, published 2025).

Experiment: LogP (1-octanol/water partition coefficient) of terpenes, slow-stirring method
Source text: LogP is the partition coefficient of a molecule between aqueous and lipophilic phases, usually considered as octanol and water. As referred to herein, the LogP of specific terpenes can be determined using the “slow-stirring” method, wherein water, 1-octanol and the test substance are equilibrated in a thermostated stirred reactor. Exchange between the phases is accelerated by stirring. The stirring introduces limited turbulence which enhances the exchange between 1-octanol and water without microdroplets being formed. A suitable “slow-stirring” method is: Test No. 123: Partition Coefficient (1-Octanol/Water): Slow-Stirring Method, 30 Jun. 2022, OECD Guidelines for the Testing of Chemicals.

SMILES | logP (LogP) | other results
C=CC(C)(CCC=C(C)C)OC(C)=O (stereo not shown) [Linalyl acetate] | – | logP: 3.92
CC(C)=CCCC(C)CCO (stereo not drawn) [Beta-citronellol] | 3.56 | –
C=C(C)[C@H]1CC=C(C)CC1 [Limonene] | – | logP (octanol/water): 4.4
C=C1CC/C=C(\C)CC[C@@H]2[C@@H]1CC2(C)C [beta-caryophyllene] | > 6.4 | –
